Values of other authors, collected in patent US20070134395A1, “Method of reducing manganese in defatted soy isolate” (priority 2005, published 2007).
Like-named read-outs stand apart in the source and are kept apart here.

Experiments:
[1] = neonate, excess Mn not metabolized
[2] = neonate, from soy-based infant formula
[3] = calcium-deficient rat pups

Compound | intestinal absorption of Mn (adults) | intestinal absorption of Mn (neonatal, animal models) | share of excess Mn stored in the basal ganglia region [1] | Mn absorbed above metabolic need [2] | greater amount of Mn in the cerebral column tissue and fluids [3]
[Mn+2] [Mn, Manganese] | one percent to about two percent | seventy percent to about eighty percent | about eight | approximately 1.1 mg | 
CC(=O)[O-].CC(=O)[O-].[Mg+2] [magnesium acetate] |  |  |  |  | 900%
